# Source: US9375005B2, “5-halogenopyrazole indanyl carboxamides” (BAYER CROPSCIENCE AG, priority 2012, dated 2016)
# Key:
# [1] = Measurement of log P values by HPLC on reversed phase columns (EEC directive 79/831 Annex V.A8); assay type: physicochemical
# Puccinia recondita = assay: In vivo preventive test on Puccinia recondita (brown rust on wheat); conditions: wheat plants sprayed 24 h before contamination, grading 12 days after contamination
# Method: Plants, used as controls, are treated with the mixture of acetone/tween/DMSO/water not containing the active material. After 24 hours, the plants are contaminated by spraying the leaves with an aqueous suspension of Puccinia recondita spores (100 000 spores per ml). […] Grading (% of efficacy) is carried out 12 days after the contamination, in comparison with the control plants.
# Uromyces appendiculatus = assay: In vivo preventive test on Uromyces appendiculatus (bean rust); conditions: bean plants sprayed 24 h before contamination, grading 11 days after contamination
# Method: Bean plants (“Saxa” variety), sown in starter cups on a 50/50 peat soil-pozzolana substrate and grown at 24° C., are treated at the 2-leaf stage (9 cm height) by spraying with the active ingredient prepared as described above. Plants, used as controls, are treated with the mixture of acetone/tween/DMSO/water not containing the active material. After 24 hours, the plants are contaminated by spraying the leaves with an aqueous suspension of Uromyces appendiculatus spores (150 000 spores per ml). […] Grading (% of efficacy) is carried out 11 days after the contamination, in comparison with the control plants.
# [2] = method [a]: LC-MS at pH 2.7, 0.1% formic acid in water / acetonitrile, gradient 10% to 95% acetonitrile
# [3] = method [b]: LC-MS at pH 7.8, 0.001 molar ammonium hydrogen carbonate in water, gradient 10% to 95% acetonitrile
SMILES,"logP [1, 2]",also measured
CCC1(C)CC(C)c2c(NC(=O)c3c(C(F)F)nn(C)c3Br)cccc21 (stereo not shown) [Example 117],–,logP ([1]; method marked [a]): 4.44[a]
CC1Cc2c(NC(=O)c3c(C(F)F)nn(C)c3Cl)cccc2C1C (stereo not shown) [Example 62],–,Eff. % (Puccinia recondita; dose 500 ppm): 94%; logP ([1]; method marked [a]): 3.87[a]; Eff. % (Uromyces appendiculatus; dose 500 ppm): 100%
CC(C)C1Cc2cccc(N)c2C1C (mixture of isomers) [III-a-24],2.9[a],–
CC(C)C1Cc2cccc(N)c2C1 (stereo not shown) [III-a-2],2.25[a],–
CC1CC2(CCCC2)c2cccc(NC(=O)c3c(C(F)F)nn(C)c3Cl)c21 (stereo not shown) [Example 111],–,Eff. % (Puccinia recondita; dose 100 ppm): 98%; logP ([1]; method marked [a]): 4.64[a]; Eff. % (Uromyces appendiculatus; dose 100 ppm): 100%
Nc1cccc2c1CC1(CCCC1)C2 [III-a-7],2.1[a],–
CC1CC(C(C)C)c2cccc(Br)c21 (stereo not shown) [III-b-13],5.31[a],–
CON=C1CCc2c(Br)cccc21 [III-b-24],4.23[a],–
CON=C1CCc2c(NC(=O)c3c(C(F)F)nn(C)c3F)cccc21 [Example 29],–,Eff. % (Puccinia recondita; dose 500 ppm): 98%; logP ([1]; method marked [a]): 2.59[a]
CC1CC2(CCCCC2)c2cccc(NC(=O)c3c(C(F)F)nn(C)c3Cl)c21 (stereo not shown) [Example 110],–,Eff. % (Puccinia recondita; dose 100 ppm): 83%; logP ([1]; method marked [a]): 5.01[a]; Eff. % (Uromyces appendiculatus; dose 100 ppm): 99%
"CCON=C1CCc2c(Br)cccc21 (single isomer, unassigned) [III-b-23]",4.9[a],–
Cn1nc(C(F)F)c(C(=O)Nc2cccc3c2CCC3C(C)(C)C)c1Cl (stereo not shown) [Example 67],–,Eff. % (Puccinia recondita; dose 500 ppm): 94%; logP ([1]; method marked [a]): 4.64[a]; Eff. % (Uromyces appendiculatus; dose 500 ppm): 100%
CCCCON=C1CCc2c(Br)cccc21 [III-b-8],5.71[a],–
Cc1ccc(NC(=O)c2c(C(F)F)nn(C)c2Cl)c2c1C(C)(C)CC2C (stereo not shown) [Example 18],–,Eff. % (Puccinia recondita; dose 500 ppm): 78%; logP ([1]; method marked [a]): 4.27[a];; logP ([1]; method marked [b]): 4.2[b]; Eff. % (Uromyces appendiculatus; dose 500 ppm): 76%
CON=C1CCc2c(N)cccc21.Cl [III-a-14],1.26[a],–
CC1CC(CC(C)(C)C)c2cccc(N)c21 (stereo not shown) [III-a-36],3.83[a],–
CC(C)(C)C1CCc2c(N)cccc21 (racemic) [III-a-35],2.4[a],–
CC1CC2(CCCC2)c2cccc(N)c21 (racemic) [III-a-43],2.86[a],–
CCCON=C1CCc2c(N)cccc21.Cl [III-a-12],2.26[a],–
CCC1(CC)Cc2c(N)cccc2C1C (racemic) [III-a-42],2.63[a],–
CCC1(CC)CC(C)c2c(NC(=O)c3c(C(F)F)nn(C)c3F)cccc21 (stereo not shown) [Example 113],–,logP ([1]; method marked [a]): 4.56[a]
CCC1(C)CC(C)c2c(NC(=O)c3c(C(F)F)nn(C)c3Cl)cccc21 (stereo not shown) [Example 115],–,logP ([1]; method marked [a]): 4.46[a]
CC1CC(C)(C)c2c(C3CC3)ccc(N)c21 (stereo not shown) [III-a-8],2.81[a],–

SMILES,"logP [1, 2]",also measured
Nc1cccc2c1CC(Cc1ccccc1)C2 (stereo not shown) [III-a-21],2.54[a],–
CCON=C1CCc2c(N)cccc21.Cl [III-a-15],1.75[a],–
CC1CC(C)c2c(NC(=O)c3c(C(F)F)nn(C)c3Cl)cccc21 (stereo not shown) [Example 43],–,Eff. % (Puccinia recondita; dose 500 ppm): 98%; Eff. % (Uromyces appendiculatus; dose 500 ppm): 100%
CCON=C1CCc2c(NC(=O)c3c(C(F)F)nn(C)c3F)cccc21 [Example 27],–,Eff. % (Puccinia recondita; dose 500 ppm): 72%; logP ([1]; method marked [a]): 3.06[a]
CC(C)C1Cc2c(N)cccc2C1(C)C (stereo not shown) [III-a-3],2.8[a],–
CON=C1c2cccc(N)c2CC1(C)C.Cl [III-a-32],2.08[a],–
Cc1ccc(N)c2c1C(C)(C)CC2C (stereo not shown) [III-a-9],2.16[a];,"logP [1, 3]: 3.52[b]"
CC1c2c(N)cccc2C(C)(C)C1C (stereo not shown) [III-a-34],2.28[a],–
CC(C)CC1CCc2c(Br)cccc21 (stereo not shown) [III-b-16],6.57[a],–
CC1CC2(CCCCC2)c2cccc(N)c21 (stereo not shown) [III-a-44],3.35[a],–
CCCCON=C1CCc2c(N)cccc21.Cl [III-a-13],2.86[a],–
CC(C)CC1CCc2c(N)cccc21 (racemic) [III-a-22],2.64[a],–
CC1CC(C)(C)c2c(Cl)ccc(N)c21 (stereo not shown) [III-a-5],3.68[a],–
CON=C1c2cccc(NC(=O)c3c(C(F)F)nn(C)c3Cl)c2CC1(C)C (mixture of isomers) [Example 59],–,Eff. % (Puccinia recondita; dose 500 ppm): 86%
CC1CC(C)(C)c2c(I)ccc(N)c21 (stereo not shown) [III-a-10],4.1[a],–
CC1CC(C)(C)c2c(Br)ccc(N)c21 (stereo not shown) [III-a-20],3.85[a];,"logP [1, 3]: 3.95[b]"
CCC1Cc2c(Br)cccc2C1(C)C (stereo not shown) [III-b-29],6.28[a],–
Nc1cccc2c1CCC21CC1 [III-a-4],1.37[a],–
CCON=C1CC(C)c2c(N)cccc21.Cl (racemic) [III-a-30],2.26[a],–
CC1CC2(CC2)c2cccc(Br)c21 (stereo not shown) [III-b-20],5.28[a],–
CC(C)C1Cc2c(Br)cccc2C1(C)C (stereo not shown) [III-b-3],6.7[a],–
"CCCON=C1CCc2c(Br)cccc21 (single isomer, unassigned) [III-b-22]",5.56[a],–
CC(C)CC1CC(C)c2c(N)cccc21 (stereo not shown) [III-a-39],3.42[a],–

SMILES,"logP [1, 2]",also measured
CC1Cc2c(N)cccc2C1C (stereo not shown) [III-a-33],1.44[a],–
CCC1Cc2cccc(N)c2C1 (racemic) [III-a-16],1.76[a],–
CCC1(C)CCc2c(N)cccc21 (racemic) [III-a-26],1.88[a],–
CON=C1CC(C)c2c(N)cccc21.Cl (racemic) [III-a-31],1.76[a],–
CON=C1CCc2c(NC(=O)c3c(C(F)F)nn(C)c3Cl)cccc21 [Example 25],–,logP ([1]; method marked [a]): 2.82[a]
CCC1(CC)CC(C)c2c(NC(=O)c3c(C(F)F)nn(C)c3Br)cccc21 (stereo not shown) [Example 114],–,logP ([1]; method marked [a]): 4.82[a]
CC1CC2(CC2)c2cccc(N)c21 (racemic) [III-a-25],1.93[a],–
CC1CC(C)(C)c2c(Br)ccc(NC(=O)c3c(C(F)F)nn(C)c3F)c21 (stereo not shown) [Example 38],–,Eff. % (Puccinia recondita; dose 500 ppm): 71%; logP ([1]; method marked [a]): 4.45[a];; logP ([1]; method marked [b]): 4.35[b]
CC1CC(C(C)C)c2cccc(N)c21 (stereo not shown) [III-a-19],2.86[a],–
Cn1nc(C(F)F)c(C(=O)Nc2cccc3c2C(C)(C)CC3)c1F [Example 100],–,logP ([1]; method marked [a]): 3.31[a]
Nc1cccc2c1CC(C1CCCC1)C2 (stereo not shown) [III-a-28],2.94[a],–
CC1CC(C)c2c(N)cccc21 (stereo not shown) [III-a-23],1.76[a],–
CC1Cc2c(N)cccc2C1(C)C (stereo not shown) [III-a-6],1.95[a],–
CCC1(C)CC(C)c2c(NC(=O)c3c(C(F)F)nn(C)c3F)cccc21 (stereo not shown) [Example 116],–,logP ([1]; method marked [a]): 4.16[a]
CCCON=C1CC(C)c2c(N)cccc21.Cl (racemic) [III-a-29],2.78[a],–
CC(C)C1Cc2c(N)cccc2C1C (stereo not shown) [III-a-11],2.34[a],–
CC1CC(C(C)C)c2cccc(N)c21 (stereo not shown) [III-a-18],2.73[a],–
Brc1cccc2c1CCC21CC1 [III-b-4],4.86[a],–
CCC1(CC)CC(C)c2c(NC(=O)c3c(C(F)F)nn(C)c3Cl)cccc21 (stereo not shown) [Example 112],–,logP ([1]; method marked [a]): 4.82[a]
CC1CC2(CC2(Cl)Cl)c2cccc(NC(=O)c3c(C(F)F)nn(C)c3F)c21 (stereo not shown) [Example 1],–,logP ([1]; method marked [a]): 3.68[a]; Eff. % (Uromyces appendiculatus; dose 500 ppm): 100%
"CCCON=C1CCc2c(Br)cccc21 (single isomer, unassigned) [III-b-7]",5.14[a],–
"CCON=C1CCc2c(Br)cccc21 (single isomer, unassigned) [III-b-10]",4.49[a],–
CCC1Cc2c(N)cccc2C1(C)C (racemic) [III-a-40],2.47[a],–
